Here are results for one compound from EP0361341A2, “Therapeutics for aids based on inhibitors of HIV protease” (MILES INC., priority 1988, dated 1990).

Structures are written as SMILES.

The experiment deals with HIV-I. In words: p24 antigen capture assay in HIV-I infected H9 lymphocytes (in vivo assay of HIV protease activity, Example 53). It counts as cell-based. The settings on record: H9 lymphocytes infected with HIV-I, three days at 37 C, relative to infected, untreated cultures; read-out: concentration showing 50% inhibition of p24 formation. Here is the method: A p24 capture assay (see Example 50 hereinbelow) provides an "in vivo" method for determining HIV-protease activity. The inhibitor is added to cells infected with HIV, […]. Inhibition of propagation of HIV-protease in cells is measured by the absence or presence of p24, which is generated by HIV protease.
H9 lymphocytes (1x 10^7 cells/ml) were incubated in the presence or absence of HIV-I for 1 hour at 37 C. Cells were washed thoroughly to remove unadsorbed virions and resuspended at 4x10^5 cells/ml in culture medium. Aliquots (one milliliter) were placed in wells of 24 well culture plates containing an equal volume of test compound (diluted in culture medium). After incubation for three days at 37 C, cell density of uninfected cultures was determined to assess toxicity of test compound. A p24 antigen capture assay was used to determine the level of HIV infection in HIV treated cultures. The ability of test compounds to inhibit HIV replication was measured at different concentrations of test compound relative to infected, untreated cultures.

As for `CC[C@H](C)[C@H](NC(=O)[C@@H]1CCCN1CC(Cc1ccccc1)NC(=O)[C@H](CC(N)=O)NC(=O)[C@H](Cc1ccccc1)NC(=O)OC(C)(C)C)C(=O)OCc1ccccc1` (stereo partly drawn) [Example 25, N-[N-[2-[[N2-[N-[(1,1-Dimethylethoxy)carbonyl]-L-phenylalanyl]-L-asparagyl]amino]-3-phenylpropyl]-L-prolyl]-L-isoleucinbenzylester], the IC50 worked out at 200 µM.
